The source of these data is ChEMBL document CHEMBL1153969, “N-Hydroxy-(4-oxime)-cinnamide: a versatile scaffold for the synthesis of novel histone deacetylase [correction of deacetilase] (HDAC) inhibitors” (Bioorg Med Chem Lett, 2009).

Bounds are passed on as bounds.

In test [1] the test system is HCT-116. Kind of test: Cytotoxicity against human HCT116 cells after 48 hrs by SRB assay. Format: functional, cell-based. The conditions noted are these: HCT-116, 48 h.
Test [2] relates to NCI-H460. Nature of the test: Cytotoxicity against human NCI-H460 cells after 48 hrs by SRB assay. Format: functional, cell-based. The following applies: NCI-H460, 48 h.
In test [3] the test system is NB-4. Nature of the test: Cytotoxicity against human NB4 cells after 48 hrs by SRB assay. Format: functional, cell-based. The following applies: NB-4, 48 h.
The target in test [4] is T1, Histone deacetylase 11 (Homo sapiens, UniProt Q96DB2).
T1 sequence (Q96DB2 whole entry): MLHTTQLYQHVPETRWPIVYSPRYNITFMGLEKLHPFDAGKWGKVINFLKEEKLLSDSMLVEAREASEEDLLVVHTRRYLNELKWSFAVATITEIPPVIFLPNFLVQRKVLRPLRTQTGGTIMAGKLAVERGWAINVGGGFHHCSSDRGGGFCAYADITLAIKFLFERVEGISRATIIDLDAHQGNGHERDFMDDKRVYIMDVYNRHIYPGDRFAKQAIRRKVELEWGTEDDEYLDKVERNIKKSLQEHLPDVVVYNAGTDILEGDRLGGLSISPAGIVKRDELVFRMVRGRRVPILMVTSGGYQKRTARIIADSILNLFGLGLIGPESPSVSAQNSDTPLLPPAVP
Nature of the test: Inhibition of human HDAC11.

The target of test [5] is Histone deacetylase 3 (Homo sapiens, UniProt O15379). Kind of test: Inhibition of human HDAC3.
Sequence of Histone deacetylase 3 (O15379 whole entry): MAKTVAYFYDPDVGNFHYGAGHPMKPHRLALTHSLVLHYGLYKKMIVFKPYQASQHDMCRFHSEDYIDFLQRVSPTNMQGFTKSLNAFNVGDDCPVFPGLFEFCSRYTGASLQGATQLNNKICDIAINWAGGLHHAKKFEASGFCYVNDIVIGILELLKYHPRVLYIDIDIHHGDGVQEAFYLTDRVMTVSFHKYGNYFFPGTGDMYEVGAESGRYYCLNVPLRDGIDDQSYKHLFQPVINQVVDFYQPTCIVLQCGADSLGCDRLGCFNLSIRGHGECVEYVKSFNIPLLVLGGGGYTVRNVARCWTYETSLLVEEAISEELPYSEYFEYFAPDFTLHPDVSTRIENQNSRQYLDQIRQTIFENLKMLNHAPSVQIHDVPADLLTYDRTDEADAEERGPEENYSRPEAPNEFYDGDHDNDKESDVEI
Test [6] concerns the target T2, Histone deacetylase 8 (Homo sapiens, UniProt Q9BY41).
T2 sequence (Q9BY41 whole entry): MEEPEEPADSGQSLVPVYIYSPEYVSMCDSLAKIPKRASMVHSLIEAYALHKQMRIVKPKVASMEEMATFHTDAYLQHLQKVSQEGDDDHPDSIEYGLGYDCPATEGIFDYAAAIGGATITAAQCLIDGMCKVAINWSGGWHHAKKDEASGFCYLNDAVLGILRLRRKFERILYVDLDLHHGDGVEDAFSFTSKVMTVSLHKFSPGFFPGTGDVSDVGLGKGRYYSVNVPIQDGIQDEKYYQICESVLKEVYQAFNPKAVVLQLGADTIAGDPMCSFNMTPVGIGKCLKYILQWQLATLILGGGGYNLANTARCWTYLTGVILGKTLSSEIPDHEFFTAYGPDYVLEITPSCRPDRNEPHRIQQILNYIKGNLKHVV
Kind of test: Inhibition of human HDAC8.

In test [7] the target is Histone deacetylase 5 (Homo sapiens, UniProt Q9UQL6). Nature of the test: Inhibition of human HDAC5.
Sequence of Histone deacetylase 5 (Q9UQL6 whole entry): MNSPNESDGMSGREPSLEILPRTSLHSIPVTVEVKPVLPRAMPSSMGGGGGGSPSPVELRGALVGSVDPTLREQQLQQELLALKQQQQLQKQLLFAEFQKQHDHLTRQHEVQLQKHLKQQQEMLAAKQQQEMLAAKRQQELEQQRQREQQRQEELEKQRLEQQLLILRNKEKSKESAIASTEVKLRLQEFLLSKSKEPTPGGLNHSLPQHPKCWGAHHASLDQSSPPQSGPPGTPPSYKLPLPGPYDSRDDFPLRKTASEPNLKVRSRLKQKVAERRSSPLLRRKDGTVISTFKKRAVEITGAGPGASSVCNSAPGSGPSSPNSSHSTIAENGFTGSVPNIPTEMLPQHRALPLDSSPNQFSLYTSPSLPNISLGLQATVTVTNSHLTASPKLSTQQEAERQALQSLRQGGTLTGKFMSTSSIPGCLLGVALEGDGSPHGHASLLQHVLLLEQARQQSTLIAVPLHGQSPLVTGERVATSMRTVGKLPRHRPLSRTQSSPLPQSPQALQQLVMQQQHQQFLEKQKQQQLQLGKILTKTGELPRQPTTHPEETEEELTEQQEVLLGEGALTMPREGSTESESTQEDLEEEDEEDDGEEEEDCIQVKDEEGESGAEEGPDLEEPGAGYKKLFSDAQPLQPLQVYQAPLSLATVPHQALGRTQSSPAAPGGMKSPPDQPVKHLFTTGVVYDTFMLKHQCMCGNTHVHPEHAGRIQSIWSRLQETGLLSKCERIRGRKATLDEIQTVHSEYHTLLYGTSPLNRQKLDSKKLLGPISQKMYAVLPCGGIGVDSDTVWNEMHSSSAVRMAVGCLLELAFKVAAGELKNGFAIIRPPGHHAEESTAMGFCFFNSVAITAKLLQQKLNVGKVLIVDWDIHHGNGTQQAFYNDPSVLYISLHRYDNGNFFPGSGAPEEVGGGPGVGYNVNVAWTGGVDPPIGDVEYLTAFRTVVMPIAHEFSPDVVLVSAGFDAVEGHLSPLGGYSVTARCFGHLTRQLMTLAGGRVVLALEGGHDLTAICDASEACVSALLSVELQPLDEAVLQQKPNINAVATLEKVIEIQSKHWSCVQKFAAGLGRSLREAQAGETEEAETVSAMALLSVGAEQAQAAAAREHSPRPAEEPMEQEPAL
Test [8] addresses Histone deacetylase 1 (Homo sapiens, UniProt Q13547).
Test [9] addresses Histone deacetylase 4 (Homo sapiens, UniProt P56524).
Description: Inhibition of human HDAC4
Test [10] concerns the target Histone deacetylase 9 (Homo sapiens, UniProt Q9UKV0). Kind of test: Inhibition of human HDAC9.
Test [11] concerns the target T3, Protein deacetylase HDAC6 (Homo sapiens, UniProt Q9UBN7).
T3 sequence (Q9UBN7 whole entry): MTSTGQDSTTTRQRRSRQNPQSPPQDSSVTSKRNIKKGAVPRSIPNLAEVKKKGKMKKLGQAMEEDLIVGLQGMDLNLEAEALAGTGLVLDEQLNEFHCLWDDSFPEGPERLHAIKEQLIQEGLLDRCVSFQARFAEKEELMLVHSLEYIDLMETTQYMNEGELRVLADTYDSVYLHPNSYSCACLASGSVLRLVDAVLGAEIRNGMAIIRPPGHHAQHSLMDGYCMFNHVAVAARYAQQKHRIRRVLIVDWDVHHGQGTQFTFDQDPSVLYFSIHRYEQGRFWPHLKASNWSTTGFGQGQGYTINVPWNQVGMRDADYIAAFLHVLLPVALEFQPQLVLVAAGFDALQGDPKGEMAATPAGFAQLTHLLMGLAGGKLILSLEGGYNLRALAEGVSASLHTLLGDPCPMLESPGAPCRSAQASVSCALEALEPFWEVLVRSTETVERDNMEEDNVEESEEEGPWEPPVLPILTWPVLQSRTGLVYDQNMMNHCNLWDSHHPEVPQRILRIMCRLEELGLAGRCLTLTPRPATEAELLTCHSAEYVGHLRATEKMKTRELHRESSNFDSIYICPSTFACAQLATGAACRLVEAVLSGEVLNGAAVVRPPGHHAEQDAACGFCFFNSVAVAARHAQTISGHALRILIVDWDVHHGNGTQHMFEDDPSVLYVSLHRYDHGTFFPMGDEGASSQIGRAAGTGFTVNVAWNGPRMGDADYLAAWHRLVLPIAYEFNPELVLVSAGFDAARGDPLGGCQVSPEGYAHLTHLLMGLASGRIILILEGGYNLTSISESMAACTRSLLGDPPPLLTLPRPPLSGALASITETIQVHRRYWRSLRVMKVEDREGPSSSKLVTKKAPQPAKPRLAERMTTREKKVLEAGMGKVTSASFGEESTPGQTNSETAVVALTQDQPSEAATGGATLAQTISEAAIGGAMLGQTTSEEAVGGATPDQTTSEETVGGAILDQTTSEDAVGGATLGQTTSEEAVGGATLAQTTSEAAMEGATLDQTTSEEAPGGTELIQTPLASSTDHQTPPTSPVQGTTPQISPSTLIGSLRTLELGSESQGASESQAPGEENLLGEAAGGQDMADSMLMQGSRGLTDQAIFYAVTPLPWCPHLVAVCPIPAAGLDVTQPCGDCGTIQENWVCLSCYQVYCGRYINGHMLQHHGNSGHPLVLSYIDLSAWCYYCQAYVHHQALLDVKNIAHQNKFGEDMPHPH
Kind of test: Inhibition of human HDAC6.

Test [12] concerns the target Histone deacetylase 2 (Homo sapiens, UniProt Q92769). Nature of the test: Inhibition of human HDAC2.
In test [13] the target is T4, Polyamine deacetylase HDAC10 (Homo sapiens, UniProt Q969S8).
T4 sequence (Q969S8 whole entry): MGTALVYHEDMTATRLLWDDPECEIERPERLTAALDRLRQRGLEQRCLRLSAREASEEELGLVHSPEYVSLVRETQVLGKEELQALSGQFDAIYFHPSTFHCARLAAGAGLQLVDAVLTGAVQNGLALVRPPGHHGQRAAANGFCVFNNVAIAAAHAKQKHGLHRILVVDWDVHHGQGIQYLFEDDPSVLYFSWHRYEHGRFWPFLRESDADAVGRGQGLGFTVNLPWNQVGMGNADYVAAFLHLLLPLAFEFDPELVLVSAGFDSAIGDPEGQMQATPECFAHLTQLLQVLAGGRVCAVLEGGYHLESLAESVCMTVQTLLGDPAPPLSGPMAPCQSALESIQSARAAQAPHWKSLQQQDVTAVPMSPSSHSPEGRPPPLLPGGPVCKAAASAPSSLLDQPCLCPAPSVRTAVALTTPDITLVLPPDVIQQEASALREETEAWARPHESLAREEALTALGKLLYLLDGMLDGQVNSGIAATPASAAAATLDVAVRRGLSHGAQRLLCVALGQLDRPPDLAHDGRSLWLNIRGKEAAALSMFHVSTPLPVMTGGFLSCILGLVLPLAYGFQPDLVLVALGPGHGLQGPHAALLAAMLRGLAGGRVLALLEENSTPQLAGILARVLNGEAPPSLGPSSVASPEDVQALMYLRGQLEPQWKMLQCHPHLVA
Kind of test: Inhibition of human HDAC10.

Test [14] deals with T5, Histone deacetylase 7 (Homo sapiens, UniProt Q8WUI4).
T5 sequence (Q8WUI4 whole entry): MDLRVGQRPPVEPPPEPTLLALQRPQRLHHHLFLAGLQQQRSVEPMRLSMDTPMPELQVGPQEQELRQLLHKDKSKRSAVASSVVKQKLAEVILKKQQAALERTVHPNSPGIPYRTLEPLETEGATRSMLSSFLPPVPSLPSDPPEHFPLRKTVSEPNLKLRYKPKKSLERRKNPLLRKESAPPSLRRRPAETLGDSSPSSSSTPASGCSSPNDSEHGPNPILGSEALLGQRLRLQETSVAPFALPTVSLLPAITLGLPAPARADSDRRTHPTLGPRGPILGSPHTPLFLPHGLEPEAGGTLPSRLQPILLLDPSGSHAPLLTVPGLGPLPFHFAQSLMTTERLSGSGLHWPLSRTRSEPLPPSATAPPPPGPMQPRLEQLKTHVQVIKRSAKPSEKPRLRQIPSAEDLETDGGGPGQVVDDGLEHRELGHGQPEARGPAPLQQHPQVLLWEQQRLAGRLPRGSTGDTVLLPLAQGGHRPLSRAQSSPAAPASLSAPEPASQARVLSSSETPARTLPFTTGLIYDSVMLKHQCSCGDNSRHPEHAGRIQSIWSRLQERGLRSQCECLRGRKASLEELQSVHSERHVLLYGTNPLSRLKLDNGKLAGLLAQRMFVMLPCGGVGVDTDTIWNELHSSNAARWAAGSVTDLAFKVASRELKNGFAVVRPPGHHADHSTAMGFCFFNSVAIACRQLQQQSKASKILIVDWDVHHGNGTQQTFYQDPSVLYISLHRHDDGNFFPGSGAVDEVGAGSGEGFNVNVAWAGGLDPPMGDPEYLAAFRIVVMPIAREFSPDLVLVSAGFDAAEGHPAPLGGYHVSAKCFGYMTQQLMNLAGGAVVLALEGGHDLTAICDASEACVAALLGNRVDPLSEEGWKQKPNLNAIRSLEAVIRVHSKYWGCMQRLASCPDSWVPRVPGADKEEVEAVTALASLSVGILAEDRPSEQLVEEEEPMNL
Kind of test: Inhibition of human HDAC7.

Sequence of Histone deacetylase 1 (Q13547 whole entry): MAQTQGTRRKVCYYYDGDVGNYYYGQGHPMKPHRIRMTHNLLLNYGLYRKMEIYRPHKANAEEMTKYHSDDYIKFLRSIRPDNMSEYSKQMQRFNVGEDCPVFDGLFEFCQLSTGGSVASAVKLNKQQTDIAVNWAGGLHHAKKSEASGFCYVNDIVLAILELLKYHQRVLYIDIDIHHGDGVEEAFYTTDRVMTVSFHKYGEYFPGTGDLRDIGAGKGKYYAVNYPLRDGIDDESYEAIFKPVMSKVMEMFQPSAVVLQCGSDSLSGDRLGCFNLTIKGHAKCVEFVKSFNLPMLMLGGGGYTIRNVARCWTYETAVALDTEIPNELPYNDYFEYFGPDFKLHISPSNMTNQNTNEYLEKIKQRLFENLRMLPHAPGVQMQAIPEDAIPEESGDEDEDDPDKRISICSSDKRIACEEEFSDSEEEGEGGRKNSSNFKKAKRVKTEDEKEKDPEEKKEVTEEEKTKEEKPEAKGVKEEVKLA
Sequence of Histone deacetylase 2 (Q92769 whole entry): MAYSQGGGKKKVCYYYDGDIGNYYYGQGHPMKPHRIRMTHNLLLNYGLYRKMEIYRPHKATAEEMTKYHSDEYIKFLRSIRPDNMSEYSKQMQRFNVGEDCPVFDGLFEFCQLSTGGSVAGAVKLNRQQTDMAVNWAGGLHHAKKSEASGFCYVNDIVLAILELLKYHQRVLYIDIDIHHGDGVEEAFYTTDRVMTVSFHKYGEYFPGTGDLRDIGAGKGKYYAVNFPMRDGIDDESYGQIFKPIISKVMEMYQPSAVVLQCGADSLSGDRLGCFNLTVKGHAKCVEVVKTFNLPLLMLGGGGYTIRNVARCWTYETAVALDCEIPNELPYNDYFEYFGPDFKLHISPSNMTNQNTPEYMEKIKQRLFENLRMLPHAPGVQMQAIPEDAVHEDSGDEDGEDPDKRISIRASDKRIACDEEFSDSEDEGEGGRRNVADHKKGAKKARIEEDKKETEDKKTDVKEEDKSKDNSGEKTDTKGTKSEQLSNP
Sequence of Histone deacetylase 4 (P56524 whole entry): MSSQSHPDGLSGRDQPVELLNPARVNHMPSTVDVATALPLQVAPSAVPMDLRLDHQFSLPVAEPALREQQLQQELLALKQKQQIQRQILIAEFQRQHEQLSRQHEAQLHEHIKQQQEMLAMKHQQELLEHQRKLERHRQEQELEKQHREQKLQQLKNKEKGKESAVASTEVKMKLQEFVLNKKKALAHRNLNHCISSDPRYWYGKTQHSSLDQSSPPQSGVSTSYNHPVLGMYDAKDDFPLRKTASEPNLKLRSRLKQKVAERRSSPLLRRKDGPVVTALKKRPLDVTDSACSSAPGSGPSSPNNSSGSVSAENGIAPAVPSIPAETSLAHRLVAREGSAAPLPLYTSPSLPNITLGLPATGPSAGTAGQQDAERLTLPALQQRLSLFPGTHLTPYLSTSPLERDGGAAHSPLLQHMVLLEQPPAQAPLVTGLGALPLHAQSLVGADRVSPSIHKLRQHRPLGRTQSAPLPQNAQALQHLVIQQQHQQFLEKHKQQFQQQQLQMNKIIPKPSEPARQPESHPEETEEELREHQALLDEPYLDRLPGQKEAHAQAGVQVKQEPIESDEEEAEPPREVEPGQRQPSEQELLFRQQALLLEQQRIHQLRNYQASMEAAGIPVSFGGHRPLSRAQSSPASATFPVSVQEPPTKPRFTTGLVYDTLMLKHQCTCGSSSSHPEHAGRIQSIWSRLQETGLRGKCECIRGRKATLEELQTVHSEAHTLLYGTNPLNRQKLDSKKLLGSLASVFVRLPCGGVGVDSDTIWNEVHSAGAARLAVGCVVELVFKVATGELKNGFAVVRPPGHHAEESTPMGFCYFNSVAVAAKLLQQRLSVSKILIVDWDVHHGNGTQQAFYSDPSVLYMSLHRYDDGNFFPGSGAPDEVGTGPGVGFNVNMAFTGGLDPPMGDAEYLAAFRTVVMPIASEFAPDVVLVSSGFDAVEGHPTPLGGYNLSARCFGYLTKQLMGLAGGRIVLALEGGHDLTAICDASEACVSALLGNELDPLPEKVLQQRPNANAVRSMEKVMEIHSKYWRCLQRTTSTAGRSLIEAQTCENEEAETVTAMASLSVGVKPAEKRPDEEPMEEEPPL
Sequence of Histone deacetylase 9 (Q9UKV0 whole entry): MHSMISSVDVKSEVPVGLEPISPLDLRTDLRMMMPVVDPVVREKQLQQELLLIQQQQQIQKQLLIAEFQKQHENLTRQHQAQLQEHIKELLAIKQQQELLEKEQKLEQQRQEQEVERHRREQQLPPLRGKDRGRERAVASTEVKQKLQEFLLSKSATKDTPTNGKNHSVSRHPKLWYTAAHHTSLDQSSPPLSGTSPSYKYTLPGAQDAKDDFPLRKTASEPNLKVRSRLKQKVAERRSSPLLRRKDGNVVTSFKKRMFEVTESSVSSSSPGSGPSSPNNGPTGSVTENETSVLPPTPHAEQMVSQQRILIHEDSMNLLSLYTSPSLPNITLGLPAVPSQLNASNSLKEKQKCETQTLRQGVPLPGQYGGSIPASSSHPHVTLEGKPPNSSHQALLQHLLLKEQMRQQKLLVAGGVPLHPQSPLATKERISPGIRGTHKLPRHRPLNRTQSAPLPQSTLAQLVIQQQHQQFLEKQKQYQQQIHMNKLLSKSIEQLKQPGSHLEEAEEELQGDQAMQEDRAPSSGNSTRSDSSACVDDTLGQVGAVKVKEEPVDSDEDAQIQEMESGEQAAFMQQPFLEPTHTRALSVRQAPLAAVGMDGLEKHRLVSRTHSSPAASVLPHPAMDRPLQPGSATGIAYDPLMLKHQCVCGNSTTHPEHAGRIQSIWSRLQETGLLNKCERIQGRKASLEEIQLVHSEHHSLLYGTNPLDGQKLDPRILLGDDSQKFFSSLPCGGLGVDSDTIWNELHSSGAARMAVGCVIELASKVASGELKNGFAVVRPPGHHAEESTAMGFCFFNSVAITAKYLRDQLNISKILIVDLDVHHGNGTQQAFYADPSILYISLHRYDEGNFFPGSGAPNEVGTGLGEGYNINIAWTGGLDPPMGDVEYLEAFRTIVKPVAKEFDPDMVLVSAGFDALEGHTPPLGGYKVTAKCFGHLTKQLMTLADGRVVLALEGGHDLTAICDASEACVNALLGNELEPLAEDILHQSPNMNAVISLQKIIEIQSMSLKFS

On to `O=C(/C=C/c1ccc(/C=N/OCc2ccccc2)cc1)NO`, for which the IC50 in [1] is 2.8 µM; in test [2] it was 1.6 µM; in [3], 0.62 µM.

On to `O=C(/C=C/c1ccc(/C=N/OCc2c(F)c(F)c(F)c(F)c2F)cc1)NO`, for which the IC50 in test [4] turned out to be 5.48 µM; in [5], 2.8 µM; in test [6], 1.29 µM; in [1], 2.4 µM; in test [2], 1.6 µM; in test [7] it was 7.2 µM. The 50% inhibitory concentration (IC50) came out at 5.48 µM in [8]; 0.7 µM in test [3]; 38.8 µM in test [9]; 12 µM in test [10]; 0.661 µM in test [11]; 11 µM in test [12]. For the same compound, inhibition in test [13] was half-maximal at 7.36 µM (IC50).

For the compound `C=CCO/N=C/c1ccc(/C=C/C(=O)NO)cc1`, the IC50 turned out to be 3.5 µM in test [1], 3.2 µM in test [2] and 1.4 µM in test [3].

In the case of `O=C(/C=C/c1ccc(-c2cc(CN3CCOCC3)on2)cc1)NO`, the half-maximal inhibitory concentration (IC50) in test [4] is 6.26 µM; in test [5], 3.14 µM; in [6], 0.127 µM; in test [1], 4 µM; in [2], 7 µM; in test [7], 10.8 µM. Also, the 50% inhibitory concentration (IC50) in [8] is 6.26 µM; in test [14] it was 22.3 µM; in test [10], 11.2 µM; in test [13], 6.1 µM.

On to `O=C(/C=C/c1ccc(/C=N/OCCN2CCOCC2)cc1)NO`, for which the 50% inhibitory concentration (IC50) in test [4] is 3.06 µM; in test [5] it was 4.08 µM; in test [6], 0.235 µM; in test [1], 1.8 µM; in [2] it was 2.9 µM; in test [7], 7.36 µM. Further, the IC50 came to 3.06 µM in test [8]; 1.7 µM in test [3]; 16.1 µM in test [9]; 13.1 µM in test [10]; 0.303 µM in test [11]; 27.7 µM in [12]. For the same compound, in test [13], half-maximal inhibition (IC50) was put at 7.84 µM.

Regarding `O=C(CCc1ccc(/C=N/OCc2ccc([N+](=O)[O-])cc2)cc1)NO`, the results for the concentration for half-maximal inhibition (IC50) in test [1], in test [2] and in test [3] were 3.1 µM, 7.7 µM and 0.95 µM, respectively.

As to `O=C(/C=C/c1ccc(/C=N/O)cc1)NO`, the IC50 in test [1] stood at 3.5 µM; in test [2], 6.3 µM; in test [3], 2.9 µM.

On to `O=C(/C=C/c1ccc(C2=NOC(CN3CCOCC3)C2)cc1)NO` (stereo not drawn), for which the half-maximal inhibitory concentration (IC50) in [1] turned out to be 3 µM; in test [2], 9.9 µM.

For `Nc1ccccc1NC(=O)/C=C/c1ccc(/C=N/OCCN2CCOCC2)cc1`, the half-inhibitory concentration (IC50) is > 20 µM in test [1], > 20 µM in test [2] and 8.9 µM in test [3].

For the compound `O=C(/C=C/c1cccc(/C=N/OCCN2CCOCC2)c1)NO`, the results for the concentration for half-maximal inhibition (IC50) in [1], in test [2] and in test [3] were 4 µM, 6.6 µM and 1.9 µM, respectively.

For `O=C(/C=C/c1ccc(/C=N/Oc2ccccc2)cc1)NO`, the IC50 worked out at 3.7 µM in test [1], 5.1 µM in [2] and 2.7 µM in test [3].

`Nc1ccccc1NC(=O)/C=C/c1ccc(/C=N/OCc2ccc([N+](=O)[O-])cc2)cc1`: the half-maximal inhibitory concentration (IC50) in [1], in [2] and in [3] was > 20 µM throughout.

As for `COC(=O)c1ccc(CO/N=C/c2ccc(/C=C/C(=O)NO)cc2)cc1`, the concentration for half-maximal inhibition (IC50) came to 10.8 µM in [4]; 0.659 µM in test [5]; 0.603 µM in test [6]; 1.7 µM in test [1]; 1.7 µM in test [2]; 3.67 µM in test [7]. Also, the IC50 in [8] came out at 1.82 µM; in test [3], 0.82 µM; in test [9] it was 12.9 µM; in [10], 6.43 µM; in test [11] it was 0.094 µM; in test [12], 15.8 µM. This compound returned an IC50 in [13] of 5.43 µM.

Regarding `O=C(C#Cc1ccc(/C=N/OCc2ccc([N+](=O)[O-])cc2)cc1)NO`, the half-inhibitory concentration (IC50) in test [1], in test [2] and in [3] was > 20 µM in each case.
